# Measured values published in patent US10682362B2, “Treatments and diagnostics for cancers” (Wayne State University, priority 2015, dated 2020).
# Read-outs that look alike come from different tables or passages of the source. Where a SMILES comes first, the peptide text is derived from it. The star is where a group is joined. Cbz = O=C(OCc1ccccc1)*
# Legend:
# AR-V7 protein [1] = settings: 22Rv1 cells, 20 μM Gal; 40 μM calpeptin or PD 66 h; 50 μM ALLM or pan-caspase inhibitor up to 72 h
# From the text: Western blotting with anti-N20/AR antibody to examine levels of AR and AR-V7 proteins in various prostate cancer cell lines. […] This was followed by Western blotting with specific AR-V7 antibody, with Actin as a loading control.
# Western blotting. (a, b) AR-V7 and AR protein levels determined by AR-V7 specific antibody and N20 antibody, respectively. (c) PARP/p89 is a caspase-3 cleavage fragment while PARP/p65 is a calpain cleavage product. (d) Caspase-3 cleavage fragment of Spectrin α2/p120, and a 150 fragment by either caspase-3 or calpain cleavage. (e) Autolysis of calpain small subunit (Cal Sm) to p28 fragment. (f) Calpain cleavage fragment of Calpastatin/p70. […] Caspase-3 activity assay.
# In C, (a) Cell lysates were derivatized with 2,4-dinitrophenylhydrazine (DNPH), followed by Western blotting to determine the levels of oxidized proteins (Oxi-P). Actin was used a load control (b). AR-V7 levels were determined by AR-V7 specific antibody (c). PARP/p89 is caspase-3 cleavage fragment while PARP/p65 is calpain cleavage product (d). (e) Autolysis of calpain small subunit (Cal Sm) to p28 fragment. (f) Actin, loading control.
# proteasome [2] = target: T1, proteasome (Homo sapiens, UniProt P28072+P28074+Q99436); experiment: cellular proteasomal CT-like, PGPH-like and T-like activities in 22Rv1 cells; format: cell-based; design: endogenous in cells; host or cells: 22Rv1; settings: for inhibition at 20 µM: 22Rv1, 22Rv1 cells, 20 μM Gal
# T1 sequence (P28074 60-263): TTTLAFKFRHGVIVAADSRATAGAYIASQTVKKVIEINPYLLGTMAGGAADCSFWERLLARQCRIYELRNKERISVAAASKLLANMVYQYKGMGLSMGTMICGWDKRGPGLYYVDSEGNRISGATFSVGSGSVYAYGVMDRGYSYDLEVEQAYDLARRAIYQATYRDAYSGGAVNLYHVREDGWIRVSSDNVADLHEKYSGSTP
# T1 sequence (P28072 1-239): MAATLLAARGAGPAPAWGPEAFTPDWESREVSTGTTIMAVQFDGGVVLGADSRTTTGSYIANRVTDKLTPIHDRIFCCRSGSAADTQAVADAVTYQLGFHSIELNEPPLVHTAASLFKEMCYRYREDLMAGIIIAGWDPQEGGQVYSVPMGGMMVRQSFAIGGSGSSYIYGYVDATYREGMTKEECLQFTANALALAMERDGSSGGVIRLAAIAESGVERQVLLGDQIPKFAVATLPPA
# T1 sequence (Q99436 44-277): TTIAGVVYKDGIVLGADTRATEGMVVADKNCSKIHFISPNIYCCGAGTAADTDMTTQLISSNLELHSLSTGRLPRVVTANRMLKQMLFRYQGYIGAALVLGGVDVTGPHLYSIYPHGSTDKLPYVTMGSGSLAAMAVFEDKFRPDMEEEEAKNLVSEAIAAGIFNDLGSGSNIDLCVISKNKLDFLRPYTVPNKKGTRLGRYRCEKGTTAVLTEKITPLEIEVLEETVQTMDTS
# From the text: (§1) FIGS. 11A-11D. […] Actin was used a load control (b). […] (f) Actin, loading control.
# 22Rv1 cells [3] = experiment: morphological changes and crystal violet staining of 22Rv1 cells; format: cell-based; settings: bortezomib 2.5 or 5 nM, Gal 20 μM, 24 h and 48 h
# From the text: In 12C, cells were fixed with formalin, and then stained with violet overnight.
# metastatic CRPC [4] = settings: cited from earlier work
# [5] = tested on: oxidized proteins (Oxi-P); experiment: oxidized proteins (DNPH derivatization, Western blotting) in 22Rv1 cells; format: cell-based; settings: 20 μM Gal
# Protocol: as §1
# (§2) Sustained DUBs inhibition was detected for up to 48 h (FIG. 11A). […] AR-V7 protein level remained subtle changes up to 56 h and decreased after 64-68 h, and completely depleted after 72 h (FIG. 11C, c). […] Consistently, caspase-3-specific cleavage fragments, 89 kD fragment of PARP (PARP/p89) were also detected between 48 and 72 h (FIG. 11C, d). Calpain activation is associated with self-autolysis of its small subunit. […] This finding has important clinical significance.
# [6] = tested on: BTZ-resistant MM 8826 cells; experiment: cell proliferation by MTS in BTZ-resistant MM cells; format: cell-based; settings: Gal alone at 10 or 20 μM, 24 h
# Protocol: FIGS. 13A-C. […] Cell proliferation was determined by MTS. […] Cell death was determined by detection of PARP cleavage. […] Actin was used as loading control.
# 8826-7BR is a multiple myeloma cell line developed resistance to bortezomib. […] This finding has high translational potential to clinics.
# purified 20S proteasome = purified 20S proteasome (Homo sapiens, UniProt P28072+P28074+Q99436); experiment: proteasome activities of purified 20S proteasome; format: biochemical; settings: 15 min
# Protocol: (§3) FIGS. 10A-10E. […] Purified 20S proteasome was used a control; BG, background (10D).
# (§4) Then deubiquitinase (DUBs) activity associated with the 19S proteasome was determined by using the purified 26S proteasome.
# proteasome [7] = experiment: proteasome CT-like activity in protein extract of 22Rv1 cells; format: biochemical; settings: high concentrations (50 or 100 μM)
# [8] = tested on: CRPC with C-terminal AR loss; settings: Phase 2 ARMOR2; cited from earlier work
# purified 26S proteasome = purified 26S proteasome (Homo sapiens, UniProt P28072+P28074+Q99436); experiment: proteasome activities of purified 26S proteasome; format: biochemical; settings: 15 min
# Protocol: as §3, §4
# caspase-3 = experiment: Caspase-3 activity assay in 22Rv1 cells; format: cell-based; settings: 20 μM Gal
# proteasome [9] = target: T1, proteasome; experiment: cellular proteasomal activities in VCaP cells; format: cell-based; design: endogenous in cells; settings: 5-20 μM Gal, 72 h
# From the text: Therefore, Gal-induced proteasome inhibition occurs prior to activation of calpain/caspases and loss of AR-V7 protein (FIGS. 4 vs. 2).
# calpain [10] = experiment: calpain activation by cleavage fragments (Western blotting) in 22Rv1 cells; format: cell-based; settings: 20 μM Gal, same time points as p28 (48 to 72 h)
# [11] = tested on: 19S proteasome-associated DUB; experiment: DUBs activity of purified 26S proteasome (Ub-AMC substrate); format: biochemical
# Protocol: as §3, §4
# [12] = tested on: full length AR (AR-FL) protein; experiment: Western blotting of full length AR (anti-AR N20) in 22Rv1 cells; format: cell-based
# DUBs = experiment: DUB activity in 22Rv1 cells; format: cell-based; settings: 20 μM Gal
# Protocol: as §1, §2
# 22Rv1 cells [13] = experiment: cell proliferation by MTT in 22Rv1 cells; format: cell-based; settings: Gal alone, 24 h
# AR-V7 = settings: 5 μM of MG132; cited from earlier work
# calpain [14] = settings: cited from earlier work
# proteasome [15] = settings: cited from earlier work
# metastatic CRPC [16] = settings: phase III clinical trials; versus 10.9 months placebo; cited from earlier work
# AR-V7 protein [17] = experiment: Western blotting of AR-V7 in nuclear and cytosolic fractions of 22Rv1 cells; format: cell-based; settings: for rescue of Gal-induced nuclear AR-V7 loss: androgen-starved 22Rv1 cells, 20 μM Gal plus 40 μM calpeptin or 20 μM Z-VAD
# From the text: Nuclear fractions were isolated and separated by Western blotting to determine AR-V7 levels. Actin was used as a loading control.
molecule,measurement,setting,value
"CSCC[C@@H](C=O)NC(=O)[C@H](CC(C)C)NC(=O)[C@H](CC(C)C)NC(C)=O [ALLM, N-acetyl-L-leucyl-L-leucyl-L-methioninal] (Ac-Leu-Leu-Met-aldehyde)",rescue of Gal-induced AR-V7 loss by inhibitor,AR-V7 protein [1],rescue AR-V7 loss partially
CC(C)C[C@H](NC(=O)[C@H](Cc1ccccc1)NC(=O)c1cnccn1)B(O)O [BTZ],proteasomal CT-like activity,"proteasome [2]; 22Rv1 cells, BTZ alone, 48 h",caused proteasomal CT-like inhibition
same,proteasomal chymotrypsin (CT)-like activity,"proteasome [2]; 22Rv1 cells, BTZ alone, 72 h",dose-dependent inhibition
same,morphological changes / cell death,22Rv1 cells [3],did not cause apparent morphological changes
CNC(=O)c1ccc(N2C(=S)N(c3ccc(C#N)c(C(F)(F)F)c3)C(=O)C2(C)C)cc1F [Enzalutamide],patients with PSA level decreased more than 50%,metastatic CRPC [4]; chemo-naive patients,40/65
same,patients with PSA level decreased more than 50%,metastatic CRPC [4]; chemotherapy-treated patients,38/75
same,lived longer than those taking placebo,metastatic CRPC [4]; interim analysis,approximately 5 months
"C[C@]12CC[C@H](O)CC1=CC[C@@H]1[C@@H]2CC[C@]2(C)C(n3cnc4ccccc43)=CC[C@@H]12 [Gal, (3S,8R,9S,10R,13S,14S)-17-(benzimidazol-1-yl)-10,13-dimethyl-2,3,4,7,8,9,11,12,14,15-decahydro-1H-cyclopenta[a]phenanthren-3-ol]",sustained accumulation of oxidized proteins detected up to,[5],up to 72 h
same,time before which oxidized proteins accumulated,[5],< 2 h
same,sensitivity of BTZ-resistant MM cells (MTS),[6],sensitive to Gal treatment alone
same,"three proteasomal activities (CT, PGPH and T-like)",purified 20S proteasome,unable to block all the three proteasomal activities
same,CT-like activity of the proteasome,proteasome [7],could inhibit the CT-like activity
same,response of Abi- and Enz refractory CRPC patients with C-terminal AR loss,[8],remain responsive
same,"three proteasomal activities (CT, PGPH and T-like)",purified 26S proteasome,unable to block all the three proteasomal activities
same,inhibition at 20 µM,proteasome [2]; after 64 h,> 50%
same,inhibition at 20 µM,proteasome [2]; at 48 h,30%
same,inhibition at 20 µM,proteasome [2]; between 2-24 h,10%
same,"proteasomal CT-like activities, time course","proteasome [2]; 22Rv1 cells, 20 μM Gal up to 72 h","inhibited in a time-dependent fashion, but later than DUBs inhibition"
same,proteasomal CT-like activity,"proteasome [2]; 22Rv1 cells, 5-20 μM Gal, 24 h",dose-dependent decrease
same,proteasomal PGPH-like activity,"proteasome [2]; 22Rv1 cells, 5-20 μM Gal, 24 h",dose-dependent decrease
same,proteasomal trypsin (T)-like activity,"proteasome [2]; 22Rv1 cells, 5-20 μM Gal, 24 h",but not trypsin (T)-like activities
same,all three proteasomal activities,"proteasome [2]; 22Rv1 cells, 5-20 μM Gal, 48 h",decreased in a Gal dose-dependent fashion
same,time after which caspase-3 activity increased,caspase-3,≥ 24 h
same,time at which caspase-3 activity reached the highest,caspase-3,48 h
same,caspase-3 activation,caspase-3; after 48 h,5 fold
same,three proteasomal activities,proteasome [9],dose-dependent inhibition
same,calpain cleavage product Calpastatin/p70,calpain [10],detected at the same time points
same,DUBs activity of purified 26S proteasome,"[11]; Gal 20 μM, 15 min",suppressed
same,DUBs activity of purified 26S proteasome,[11]; Gal at a low dose (10 μM),could efficiently inhibit DUBs activity
same,morphological changes / cell death,22Rv1 cells [3],did not cause apparent morphological changes
same,time after which full length AR (AR-FL) protein decreased,[12]; 20 μM Gal for up to 72 h,≥ 48 h
same,AR-FL protein expression in cytosolic and nuclear fractions,"[12]; 20 μM Gal, anti-AR N20 antibody",a decrease in both cytosolic and nuclear AR-FL protein expression
same,earliest time of DUBs inhibition,DUBs,≤ 2 h
same,sustained DUBs inhibition detected up to,DUBs,up to 48 h
same,cell proliferation (MTT),22Rv1 cells [13],did not inhibit cell proliferation
CC(C)C[C@@H](C=O)NC(=O)[C@H](CC(C)C)NC(=O)[C@H](CC(C)C)NC(=O)OCc1ccccc1 [MG132] (Cbz-Leu-Leu-Leu-aldehyde),inhibition of Gal-induced AR-V7 degradation,AR-V7,could be inhibited
same,IC50,calpain [14],1200 nM
same,IC50,proteasome [15],100 nM
O=C(O)/C(S)=C/c1ccc(I)cc1 [PD150606],rescue of Gal-induced AR-V7 loss by inhibitor,AR-V7 protein [1],rescue AR-V7 loss partially
CC(=O)O[C@H]1CC[C@@]2(C)C(=CC[C@@H]3[C@@H]2CC[C@]2(C)C(c4cccnc4)=CC[C@@H]32)C1 [abiraterone acetate],median survival,metastatic CRPC [16],14.8 months
"CCCC[C@@H](C=O)NC(=O)[C@H](CC(C)C)NC(=O)OCc1ccccc1 [calpeptin, Z-Leu-Nle-CHO]",rescue of Gal-induced AR-V7 loss by inhibitor,AR-V7 protein [1],rescue AR-V7 loss partially
same,block of Gal-induced nuclear AR-V7 depletion,"AR-V7 protein [17]; 22Rv1 cells, 20 μM Gal plus 40 μM calpeptin, 56 h and 72 h",could be blocked
same,rescue of Gal-induced nuclear AR-V7 loss,AR-V7 protein [17],partially rescued AR-V7 loss by Gal
Z-VAD,rescue of Gal-induced nuclear AR-V7 loss,AR-V7 protein [17],able to block the Gal-induced AR-V7 depletion
